Test results as given in article PMC6364417, “Kinase inhibitor library screening identifies synergistic drug combinations effective in sensitive and resistant melanoma cells” (Journal of Experimental & Clinical Cancer Research : CR, 2019).

Columns and labels:
Assay in all cases: Kinase inhibitor library screening, PrestoBlue cell viability, 1 or 10 μM, 72 h
501Mel cells (parental) = conditions: 501Mel Parental
Experimental: (§1) After 72 h of treatment, cell viability was assessed using the PrestoBlue Cell Viability Reagent (ThermoFisher Scientific). Measurements were performed with the CLARIOstar Monochromator microplate reader (BMG Labtech).
(§2) Kinase inhibitor library screening. […] Each cell line was treated in its sensitive form (parental), and also as 2 resistant derivatives, which were made resistant to either Vemurafenib (XP) or Dabrafenib (GP). Drugs were added at 2 different concentrations, 1 and 10 μM, for 72 h and cell viability was assessed using the PrestoBlue Cell Viability assay. Results are depicted as % viability compared to untreated cells. Each cell line was analyzed at least in duplicate. […] (XLSX 95 kb)

[1] = system: 501Mel-GP cells (Dabrafenib-resistant); conditions: 501Mel GP
Experimental: as §1, §2

[2] = system: 501Mel-XP cells (Vemurafenib-resistant); conditions: 501Mel XP
Experimental: as §1, §2

A375 cells (parental) = conditions: A375 Parental
Experimental: as §1, §2

[3] = system: A375-XP cells (Vemurafenib-resistant); conditions: A375 XP
Experimental: as §1, §2

IGR37 cells (parental) = conditions: IGR37 Parental
Experimental: as §1, §2

[4] = system: IGR37-GP cells (Dabrafenib-resistant); conditions: IGR37 GP
Experimental: as §1, §2

[5] = system: IGR37-XP cells (Vemurafenib-resistant); conditions: IGR37 XP
Experimental: as §1, §2

[6] = system: A375-GP cells (Dabrafenib-resistant); conditions: A375 GP
Experimental: as §1, §2

SMILES	cell viability (kinase inhibitor library screening) (501Mel cells (parental); 1μΜ, 72 h) [%]	cell viability (kinase inhibitor library screening) (501Mel cells (parental); 10μΜ, 72 h) [%]	cell viability (kinase inhibitor library screening) ([1]; 1μΜ, 72 h) [%]	cell viability (kinase inhibitor library screening) ([1]; 10μΜ, 72 h) [%]	cell viability (kinase inhibitor library screening) ([2]; 1μΜ, 72 h) [%]	cell viability (kinase inhibitor library screening) ([2]; 10μΜ, 72 h) [%]	cell viability (kinase inhibitor library screening) (A375 cells (parental); 1μΜ, 72 h) [%]	cell viability (kinase inhibitor library screening) (IGR37 cells (parental); 1μΜ, 72 h) [%]	cell viability (kinase inhibitor library screening) (IGR37 cells (parental); 10μΜ, 72 h) [%]	cell viability (kinase inhibitor library screening) ([4]; 1μΜ, 72 h) [%]	cell viability (kinase inhibitor library screening) ([4]; 10μΜ, 72 h) [%]	cell viability (kinase inhibitor library screening) ([5]; 10μΜ, 72 h) [%]	cell viability (kinase inhibitor library screening) (501Mel cells (parental); 10μΜ, in %)	cell viability (kinase inhibitor library screening) ([1]; 1μΜ, in %)	cell viability (kinase inhibitor library screening) ([1]; 10μΜ, in %)	cell viability (kinase inhibitor library screening) ([2]; 1μΜ, in %)	cell viability (kinase inhibitor library screening) ([2]; 10μΜ, in %)	cell viability (kinase inhibitor library screening) ([6]; 1μΜ, in %)	cell viability (kinase inhibitor library screening) ([6]; 10μΜ, in %)	cell viability (kinase inhibitor library screening) ([3]; 1μΜ, in %)	further results
OCCn1cc(-c2cnc3nnn(Cc4ccc5ncccc5c4)c3n2)cn1 [PF-04217903]	97.4	99.2	89.0	82.3	68.7	68.6	111.4	119.0	104.5	105.7	91.4	67.3	–	–	–	–	–	–	–	–	cell viability (kinase inhibitor library screening) ([3]; 1μΜ, 72 h): 107.0%; cell viability (kinase inhibitor library screening) ([3]; 10μΜ, 72 h): 110.9%
Cn1cc(-c2ccc3nnc(Sc4ccc5ncccc5c4)n3n2)cn1 [SGX-523]	95.0	89.4	82.6	64.3	67.2	58.8	104.5	107.3	94.5	94.1	90.7	74.3	–	–	–	–	–	–	–	–	cell viability (kinase inhibitor library screening) (A375 cells (parental); 10μΜ, 72 h): 97.1%; cell viability (kinase inhibitor library screening) ([6]; 1μΜ, 72 h): 89.5%; cell viability (kinase inhibitor library screening) ([6]; 10μΜ, 72 h): 94.8%; cell viability (kinase inhibitor library screening) ([5]; 1μΜ, 72 h): 100.4%
COc1cc2nccc(Oc3ccc(NC(=O)Nc4cc(C)on4)c(Cl)c3)c2cc1OC [Tivozanib (AV-951)]	–	–	–	–	–	–	–	–	–	–	–	–	74.1	103.1	58.3	97.3	64.2	99.1	54.4	105.9	cell viability (kinase inhibitor library screening) (A375 cells (parental); 1μΜ, in %): 104.6; cell viability (kinase inhibitor library screening) (A375 cells (parental); 10μΜ, in %): 60.4; cell viability (kinase inhibitor library screening) ([3]; 10μΜ, in %): 77.7; cell viability (kinase inhibitor library screening) (IGR37 cells (parental); 1μΜ, in %): 97.2; cell viability (kinase inhibitor library screening) (IGR37 cells (parental); 10μΜ, in %): 83.4; cell viability (kinase inhibitor library screening) ([5]; 10μΜ, in %): 55.2
CNC(=O)c1ccc(C)c(-n2c(C)cc(OCc3ccc(F)cc3F)c(Br)c2=O)c1 [PH-797804]	–	–	–	–	–	–	–	–	–	–	–	–	–	–	–	–	–	–	–	–	Cell viability in kinase inhibitor library screening, 501Mel Parental, 1μΜ (501Mel cells (parental); 1μΜ, 72 h, in %): 98.2; Cell viability in kinase inhibitor library screening, 501Mel GP, 1μΜ ([1]; 1μΜ, 72 h, in %): 106.6; Cell viability in kinase inhibitor library screening, 501Mel GP, 10μΜ ([1]; 10μΜ, 72 h, in %): 91.3; Cell viability in kinase inhibitor library screening, 501Mel XP, 1μΜ ([2]; 1μΜ, 72 h, in %): 90.4; Cell viability in kinase inhibitor library screening, 501Mel XP, 10μΜ ([2]; 10μΜ, 72 h, in %): 84.3; Cell viability in kinase inhibitor library screening, A375 Parental, 10μΜ (A375 cells (parental); 10μΜ, 72 h): 84.4; Cell viability in kinase inhibitor library screening, A375 Parental, 1μΜ (A375 cells (parental); 1μΜ, 72 h): 109.2; Cell viability in kinase inhibitor library screening, A375 GP, 1μΜ ([6]; 1μΜ, 72 h): 103.3; Cell viability in kinase inhibitor library screening, A375 GP, 10μΜ ([6]; 10μΜ, 72 h): 87.3; Cell viability in kinase inhibitor library screening, A375 XP, 10μΜ ([3]; 10μΜ, 72 h): 95.8; Cell viability in kinase inhibitor library screening, IGR37 Parental, 1μΜ (IGR37 cells (parental); 1μΜ, 72 h, in %): 103.0; Cell viability in kinase inhibitor library screening, IGR37 XP, 10μΜ ([5]; 10μΜ, 72 h): 74.4%; Cell viability in kinase inhibitor library screening, IGR37 XP, 1μΜ ([5]; 1μΜ, 72 h, in %): 104.2
N#CC1(c2ccc(NC(=O)c3cccnc3NCc3ccncc3)cc2)CCCC1 [Apatinib (YN968D1)]	–	–	–	–	–	–	–	–	–	–	–	–	103.9	102.7	98.0	112.2	105.3	97.5	98.6	103.9	cell viability (kinase inhibitor library screening) (501Mel cells (parental); 1μΜ, in %): 103.5; cell viability (kinase inhibitor library screening) ([3]; 10μΜ, in %): 105.3; cell viability (kinase inhibitor library screening) (IGR37 cells (parental); 1μΜ, in %): 103.0; cell viability (kinase inhibitor library screening) (IGR37 cells (parental); 10μΜ, in %): 105.2; cell viability (kinase inhibitor library screening) ([4]; 1μΜ, in %): 94.0; cell viability (kinase inhibitor library screening) ([4]; 10μΜ, in %): 95.0; cell viability (kinase inhibitor library screening) ([5]; 1μΜ, in %): 105.2; cell viability (kinase inhibitor library screening) ([5]; 10μΜ, in %): 86.2
